Experimental data from PubChem BioAssay AID1963966 (Molecular Pharmacology Branch, DTP, NCI, 2024).
pIC50: −log10 of the molar value.

Test system: 935938-334-R-J1-PDC spheroids with HUVEC/MSC, viability
Experiment: Anticancer human tumor 935938-334-R-J1-PDC patient-derived small intestine adenocarcinoma cell line growth inhibition [PI3K]
Conditions: for pIC50: curve of first compound; for viability, T/C: stronger effect = lower value
Outline: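 Tumor cells were combined with HUVEC and MSCs into spheroids, then dosed with PI3K-inhibitor combinations over half-log ranges capped near clinical Cmax or 10 microM.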

[1] = second compound 0.0316 µM, first compound 0.0316 µM
[2] = second compound 0.0316 µM, first compound 0.1 µM
[3] = second compound 0.0316 µM, first compound 0.316 µM
[4] = second compound 0.0316 µM, first compound 1 µM
[5] = second compound 0.0316 µM, first compound 3.16 µM
[6] = second compound 0.0316 µM, first compound 10 µM
[7] = second compound 0.1 µM, first compound 0.0316 µM
[8] = second compound 0.1 µM, first compound 0.1 µM
[9] = second compound 0.1 µM, first compound 0.316 µM
[10] = second compound 0.1 µM, first compound 1 µM
[11] = second compound 0.1 µM, first compound 3.16 µM
[12] = second compound 0.1 µM, first compound 10 µM
[13] = second compound 0.316 µM, first compound 0.0316 µM
[14] = second compound 0.316 µM, first compound 0.1 µM
[15] = second compound 0.316 µM, first compound 0.316 µM
[16] = second compound 0.316 µM, first compound 1 µM
[17] = second compound 0.316 µM, first compound 3.16 µM
[18] = second compound 0.316 µM, first compound 10 µM
[19] = second compound 1 µM, first compound 0.0316 µM
[20] = second compound 1 µM, first compound 0.1 µM
[21] = second compound 1 µM, first compound 0.316 µM
[22] = second compound 1 µM, first compound 1 µM
[23] = second compound 1 µM, first compound 3.16 µM
[24] = second compound 1 µM, first compound 10 µM
[25] = second compound 3.16 µM, first compound 0.0316 µM
[26] = second compound 3.16 µM, first compound 0.1 µM
[27] = second compound 3.16 µM, first compound 0.316 µM
[28] = second compound 3.16 µM, first compound 1 µM
[29] = second compound 3.16 µM, first compound 3.16 µM
[30] = second compound 3.16 µM, first compound 10 µM
[31] = second compound 10 µM, first compound 0.0316 µM
[32] = second compound 10 µM, first compound 0.1 µM
[33] = second compound 10 µM, first compound 0.316 µM
[34] = second compound 10 µM, first compound 1 µM
[35] = second compound 10 µM, first compound 3.16 µM
[36] = second compound 10 µM, first compound 10 µM
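Also: compound exposure lasted seven days before viability was read.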
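For viability, T/C in this document: percent of vehicle DMSO treated spheroid viability so 100% = untreated.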

CC(C)NCC(C(=O)N1CCN(c2ncnc3c2C(C)CC3O)CC1)c1ccc(Cl)cc1 (stereo unspecified) + Cc1nc(NC(=O)N2CCCC2C(N)=O)sc1-c1ccnc(C(C)(C)C(F)(F)F)c1
pIC50 (second compound 0.0316 µM): 5.69
pIC50 (second compound 0.1 µM): < 5.00
pIC50 (second compound 0.316 µM): 5.74
pIC50 (second compound 1 µM): 5.89
pIC50 (second compound 3.16 µM): 7.10
pIC50 (second compound 10 µM): 6.48
viability, T/C [1]: 80.2%
viability, T/C [2]: 104%
viability, T/C [3]: 75.9%
viability, T/C [4]: 61.5%
viability, T/C [5]: 44.3%
viability, T/C [6]: 37.4%
viability, T/C [7]: 89.2%
viability, T/C [8]: 101%
viability, T/C [9]: 82.5%
viability, T/C [10]: 50.5%
viability, T/C [11]: 61%
viability, T/C [12]: 44.2%
viability, T/C [13]: 94.7%
viability, T/C [14]: 80.5%
viability, T/C [15]: 86.2%
viability, T/C [16]: 55.8%
viability, T/C [17]: 49.4%
viability, T/C [18]: 38.5%
viability, T/C [19]: 70%
viability, T/C [20]: 67.4%
viability, T/C [21]: 72.8%
viability, T/C [22]: 54.4%
viability, T/C [23]: 33.6%
viability, T/C [24]: 35.8%
viability, T/C [25]: 74.9%
viability, T/C [26]: 43%
viability, T/C [27]: 46.5%
viability, T/C [28]: 52.8%
viability, T/C [29]: 39.9%
viability, T/C [30]: 27.8%
viability, T/C [31]: 47.9%
viability, T/C [32]: 52.5%
viability, T/C [33]: 51%
viability, T/C [34]: 35.9%
viability, T/C [35]: 39.3%
viability, T/C [36]: 32.2%

CCN1CCN(Cc2ccc(Nc3ncc(F)c(-c4cc(F)c5nc(C)n(C(C)C)c5c4)n3)nc2)CC1 + Cc1nc(NC(=O)N2CCCC2C(N)=O)sc1-c1ccnc(C(C)(C)C(F)(F)F)c1
pIC50 (second compound 0.0316 µM): 6.83
pIC50 (second compound 0.1 µM): 7.36
pIC50 (second compound 0.316 µM): 7.26
pIC50 (second compound 1 µM): 7.73
pIC50 (second compound 3.16 µM): > 8.50
pIC50 (second compound 10 µM): > 8.50
viability, T/C (second compound 0.0316 µM, first compound 0.00316 µM): 88.8%
viability, T/C (second compound 0.0316 µM, first compound 0.01 µM): 68.9%
viability, T/C [1]: 64.3%
viability, T/C [2]: 57.2%
viability, T/C [3]: 43%
viability, T/C [4]: 32.4%
viability, T/C (second compound 0.1 µM, first compound 0.00316 µM): 94.5%
viability, T/C (second compound 0.1 µM, first compound 0.01 µM): 92.2%
viability, T/C [7]: 53.3%
viability, T/C [8]: 45.6%
viability, T/C [9]: 37.5%
viability, T/C [10]: 35.4%
viability, T/C (second compound 0.316 µM, first compound 0.00316 µM): 86.6%
viability, T/C (second compound 0.316 µM, first compound 0.01 µM): 71.4%
viability, T/C [13]: 52.4%
viability, T/C [14]: 44.9%
viability, T/C [15]: 41.2%
viability, T/C [16]: 32.4%
viability, T/C (second compound 1 µM, first compound 0.00316 µM): 69.7%
viability, T/C (second compound 1 µM, first compound 0.01 µM): 59.2%
viability, T/C [19]: 40.8%
viability, T/C [20]: 37.7%
viability, T/C [21]: 26.1%
viability, T/C [22]: 28.3%
viability, T/C (second compound 3.16 µM, first compound 0.00316 µM): 41.5%
viability, T/C (second compound 3.16 µM, first compound 0.01 µM): 44.6%
viability, T/C [25]: 42.6%
viability, T/C [26]: 30.7%
viability, T/C [27]: 25.7%
viability, T/C [28]: 30.1%
viability, T/C (second compound 10 µM, first compound 0.00316 µM): 39.2%
viability, T/C (second compound 10 µM, first compound 0.01 µM): 44.7%
viability, T/C [31]: 34.1%
viability, T/C [32]: 26.2%
viability, T/C [33]: 35%
viability, T/C [34]: 28.5%

Cn1ncc(Cl)c1-c1cc(C(=O)NC(CN)Cc2cccc(F)c2)sc1Cl (stereo unspecified) + Cc1nc(NC(=O)N2CCCC2C(N)=O)sc1-c1ccnc(C(C)(C)C(F)(F)F)c1
pIC50 (second compound 0.0316 µM): 5.52
pIC50 (second compound 0.1 µM): 6.13
pIC50 (second compound 0.316 µM): 6.11
pIC50 (second compound 1 µM): 6.58
pIC50 (second compound 3.16 µM): 6.84
pIC50 (second compound 10 µM): > 7.50
viability, T/C [1]: 83.4%
viability, T/C [2]: 87.5%
viability, T/C [3]: 61.9%
viability, T/C [4]: 67.4%
viability, T/C [5]: 38.1%
viability, T/C [6]: 52.8%
viability, T/C [7]: 100%
viability, T/C [8]: 77.2%
viability, T/C [9]: 60.4%
viability, T/C [10]: 45.9%
viability, T/C [11]: 37%
viability, T/C [12]: 24.3%
viability, T/C [13]: 90.7%
viability, T/C [14]: 67.3%
viability, T/C [15]: 60.6%
viability, T/C [16]: 45.1%
viability, T/C [17]: 43.3%
viability, T/C [18]: 26.8%
viability, T/C [19]: 48.2%
viability, T/C [20]: 62.4%
viability, T/C [21]: 42.6%
viability, T/C [22]: 46.9%
viability, T/C [23]: 35.7%
viability, T/C [24]: 23.8%
viability, T/C [25]: 53.5%
viability, T/C [26]: 62.5%
viability, T/C [27]: 34.4%
viability, T/C [28]: 38%
viability, T/C [29]: 27.1%
viability, T/C [30]: 22.4%
viability, T/C [31]: 37.9%
viability, T/C [32]: 35.8%
viability, T/C [33]: 39.2%
viability, T/C [34]: 39%
viability, T/C [35]: 28.1%
viability, T/C [36]: 26.7%
